Data: US5470836A, “Paromomycin or its derivatives or salts thereof in combination with sodium stirogluconate for parenteral treatment of human parasitic diseases” (priority 1988, dated 1995)
Several values for one entry are separate records, joined by “and”; a condition that tells them apart may be missing. Identical values can stand only once. Entries after “also recorded” stand apart in the source; their conditions may differ.

Tests used:
[1] = tested on: visceral leishmaniasis (leishmaniasis amastigotes in spleen aspirates); assay: Randomised clinical trial in newly diagnosed visceral leishmaniasis: clinical and parasitologic cure (Example 2); type: in vivo, human; conditions: for Clinical cures, % / Clinical cures, No.: at termination, complete abatement of initial symptoms with marked reduction of spleen size; for Apparent cures, % / Apparent cures, No.: negative spleen aspirate smears at termination of treatment; for Failures, % / Failures, No.: partial cures and relapses; for Partial cures, % / Partial cures, No.: persistence of low parasite counts in terminal spleen aspirates; for Definite cures, % / Definite cures, No.: persisting clinical cure with negative spleen aspirates 6 months after termination; for Relapses, % / Relapses, No.: reappearance of leishmanial parasites after an apparent cure; for Mean treatment duration: treated until first negative spleen aspirate or for 20 consecutive days
Protocol: (§1) Patients newly diagnosed with visceral leighmaniasis, confirmed by the presence of leishmaniasis amastigotes in spleen aspirates, were allocated randomly to groups subjected to the following treatments:
(§2) 1) IV/IM sodium stibogluconate (SbV) 20 mg/kg body weight once per day;
(§3) 2) IM paromomycin sulphate (PM) 14-16 mg/kg body weight once per day;
(§4) 3) IV/IM sodium stibogluconate 20 mg/kg body weight once per day and paromomycin sulphate 14-16 mg/kg body weight once per day.
(§5) All treatments were administered until the first negative spleen aspirate was obtained, or for 20 consecutive days regardless of aspirate findings.
Exclusion criteria were: […]; known allergy to aminoglycoside compounds: pregnancy; haemoglobin assay below 40 g/l; abnormal prothrombin time; impaired liver or renal function; major concurrent infection; previous drug treatment for leishmaniasis; and spleen smear-parasite grading of less than 4+.
(§6) The following procedures were conducted for patient assessment at intake and at suitable intervals during and after treatment: clinical history writeup: physical examination: body weight: chest X-ray: ECG tracing: liver and kidney function tests: blood picture and blood smears (to rule out malaria): complete urinalysis: stool examination: prothrombin time: and spleen aspirate smear examination by the method of Chulay & Bryceson, Quantitations of amastigotes of leishmania donovani in smears of splenic aspirates from patients with visceral leishmaniasis, American Journal of Tropical Medicine and Hygiene, 32, 1983, 475-479.
Treatment of effectiveness was graded under the following headings:
Clinical cure: complete abatement of initial symptoms with marked reduction of spleen size;
Partial cure: persistence of low parasite counts in terminal spleen aspirates;
Apparent cure: negative spleen aspirate smears at termination of treatment;
Relapse: reappearance of leishmanial parasites after an apparent cure;
Definite cure: persisting clinical cure with negative spleen aspirates 6 months after termination of treatment;
Failures: partial cures and relapses.
(§7) Drug safety was assessed for each treatment regime in terms of incidence of drug-related signs and symptoms and of laboratory test results return abnormalities. The assembled data were processed statistically by the Fisher's exact test (chi-square) and Pearson's correlation coefficient.

visceral leishmaniasis [2] = assay: Clinical, haematologic and parasite indices during treatment and follow-up (Example 2); type: in vivo, human; conditions: mean
Protocol: as §1, §2, §3, §4, §5, §6

[3] = Drug safety: adverse effects and complications (Example 2); type: in vivo, human
Protocol: as §1, §2, §3, §4, §5, §6, §7

[4] = Blood biochemistry during treatment and follow-up (Example 2); type: in vivo, human
Protocol: as §2, §3, §4, §5, §6
The assembled data were processed statistically by the Fisher's exact test (chi-square) and Pearson's correlation coefficient.

visceral leishmaniasis [5] = conditions: parenteral, 20 mg/kg body weight over 30 days; cited from earlier work
Kala-azar = conditions: 20 mg SbV/kg daily for 40 days; cited from earlier work

NC[C@@H]1O[C@H](O[C@H]2[C@@H](O)[C@H](O[C@@H]3[C@@H](O)[C@H](N)C[C@H](N)[C@H]3O[C@H]3O[C@H](CO)[C@@H](O)[C@H](O)[C@H]3N)O[C@@H]2CO)[C@H](N)[C@@H](O)[C@@H]1O [PM, paromomycin sulphate]
Clinical cures, % [1]: 100%
Clinical cures, No. [1]: 19 No.
incidence of relapses (in words) ([1]; comparison of treatment groups): least incidence of relapses; also recorded: smallest share of relapses; also recorded: low rate of relapses
parasitologic effectiveness (in words) ([1]; comparison of treatment groups): best results
share of partial cures (in words) ([1]; comparison of treatment groups): highest share of partial cures
Apparent cures, % [1]: 84.2%
Apparent cures, No. [1]: 16 No.
Failures, % [1]: 21%
Failures, No. [1]: 4 No.
Partial cures, % [1]: 15.8%
Partial cures, No. [1]: 3 No.
Definite cures, % [1]: 79%
Definite cures, No. [1]: 15 No.
Relapses, % [1]: 5.2%
Relapses, No. [1]: 1 No.
Mean treatment duration [1]: 19 days
Eosinophil count (visceral leishmaniasis [2]; Day 0 (intake)): 0 /cu mm
Heart rate (visceral leishmaniasis [2]; Day 0 (intake)): 105 min⁻¹
Hemoglobin assay (visceral leishmaniasis [2]; Day 0 (intake)): 7.1 g/dL
Parasite grading (visceral leishmaniasis [2]; Day 0 (intake)): 5
Spleen size (visceral leishmaniasis [2]; Day 0 (intake)): 15.5 cm
Temp (visceral leishmaniasis [2]; Day 0 (intake)): 38.3 °C
Weight (visceral leishmaniasis [2]; Day 0 (intake)): 34.0 kg
Eosinophil count (visceral leishmaniasis [2]; Day 20): 2 /cu mm
Heart rate (visceral leishmaniasis [2]; Day 20): 84 min⁻¹
Hemoglobin assay (visceral leishmaniasis [2]; Day 20): 10.0 g/dL
Parasite grading (visceral leishmaniasis [2]; Day 20): 1
Spleen size (visceral leishmaniasis [2]; Day 20): 8.4 cm
Temp (visceral leishmaniasis [2]; Day 20): 36.1 °C
Weight (visceral leishmaniasis [2]; Day 20): 37.0 kg
Eosinophil count (visceral leishmaniasis [2]; Day 75): 1 /cu mm
Heart rate (visceral leishmaniasis [2]; Day 75): 82 min⁻¹
Hemoglobin assay (visceral leishmaniasis [2]; Day 75): 12.3 g/dL
Parasite grading (visceral leishmaniasis [2]; Day 75): 1
Spleen size (visceral leishmaniasis [2]; Day 75): 4.3 cm
Temp (visceral leishmaniasis [2]; Day 75): 36.1 °C
Weight (visceral leishmaniasis [2]; Day 75): 39.1 kg
Adverse effects, % ([3]; in vivo): 0%
Adverse effects, No. ([3]; in vivo): 0 No.
antibiotic treatment needed for pneumonia ([3]; in vivo): did not need additional antibiotic medication
bouts of pneumonia, cases ([3]; in vivo): 4 cases
side effects (in words) ([3]; in vivo): no side effects

sodium stibogluconate [SbV]
Clinical cures, % [1]: 100%
Clinical cures, No. [1]: 11 No.
parasitologic effectiveness (in words) ([1]; comparison of treatment groups): by far the least effective of all
Apparent cures, % [1]: 90.9%
Apparent cures, No. [1]: 10 No.
Failures, % [1]: 45.5% and 45. %
Failures, No. [1]: 5 No.
Partial cures, % [1]: 9.1%
Partial cures, No. [1]: 1 No.
Definite cures, % [1]: 54.5%
Definite cures, No. [1]: 6 No.
Relapses, % [1]: 36.4%
Relapses, No. [1]: 4 No.
Mean treatment duration [1]: 17 days
Eosinophil count (visceral leishmaniasis [2]; Day 0 (intake)): 0 /cu mm
Heart rate (visceral leishmaniasis [2]; Day 0 (intake)): 112 min⁻¹
Hemoglobin assay (visceral leishmaniasis [2]; Day 0 (intake)): 7.6 g/dL
Parasite grading (visceral leishmaniasis [2]; Day 0 (intake)): 5
Spleen size (visceral leishmaniasis [2]; Day 0 (intake)): 14.5 cm
Temp (visceral leishmaniasis [2]; Day 0 (intake)): 38.5 °C
Weight (visceral leishmaniasis [2]; Day 0 (intake)): 33.2 kg
Eosinophil count (visceral leishmaniasis [2]; Day 20): 1 /cu mm
Heart rate (visceral leishmaniasis [2]; Day 20): 92 min⁻¹
Hemoglobin assay (visceral leishmaniasis [2]; Day 20): 8.9 g/dL
Parasite grading (visceral leishmaniasis [2]; Day 20): 1
Spleen size (visceral leishmaniasis [2]; Day 20): 7 cm
Temp (visceral leishmaniasis [2]; Day 20): 36.2 °C
Weight (visceral leishmaniasis [2]; Day 20): 27.3 kg
Eosinophil count (visceral leishmaniasis [2]; Day 75): 1 /cu mm
Heart rate (visceral leishmaniasis [2]; Day 75): 80 min⁻¹
Hemoglobin assay (visceral leishmaniasis [2]; Day 75): 11.6 g/dL
Parasite grading (visceral leishmaniasis [2]; Day 75): 1
Spleen size (visceral leishmaniasis [2]; Day 75): 5 cm
Temp (visceral leishmaniasis [2]; Day 75): 36.9 °C
Weight (visceral leishmaniasis [2]; Day 75): 36.7 kg
ALAT (Alanine aminotransferase) ([4]; Day 0): 25.4 I.U./l
ALP (Alkaline phosphatase) ([4]; Day 0): 87.6 I.U./l
ASAT (Aspartate aminotransferase) ([4]; Day 0): 20.2 I.U./l
Albumin ([4]; Day 0): 31.3 g/L
BUN assay ([4]; Day 0): 8.2 mmol/L
Bilirubin ([4]; Day 0): 6.4 µmol/L
Creatinine ([4]; Day 0): 73.6 µmol/L
ALAT (Alanine aminotransferase) ([4]; Day 10): 24.0 I.U./l
ALP (Alkaline phosphatase) ([4]; Day 10): 79.1 I.U./l
ASAT (Aspartate aminotransferase) ([4]; Day 10): 19.2 I.U./l
Albumin ([4]; Day 10): 30.3 g/L
BUN assay ([4]; Day 10): 8.1 mmol/L
Bilirubin ([4]; Day 10): 4.1 µmol/L
Creatinine ([4]; Day 10): 68.0 µmol/L
ALAT (Alanine aminotransferase) ([4]; Day 20): 22.0 I.U./l
ALP (Alkaline phosphatase) ([4]; Day 20): 71.0 I.U./l
ASAT (Aspartate aminotransferase) ([4]; Day 20): 21.0 I.U./l
Albumin ([4]; Day 20): 29.5 g/L
BUN assay ([4]; Day 20): 4.0 mmol/L
Bilirubin ([4]; Day 20): 3.8 µmol/L
Creatinine ([4]; Day 20): 53.0 µmol/L
ALAT (Alanine aminotransferase) ([4]; Day 75): 25.3 I.U./l
ALP (Alkaline phosphatase) ([4]; Day 75): 83.7 I.U./l
ASAT (Aspartate aminotransferase) ([4]; Day 75): 25.5 I.U./l
Albumin ([4]; Day 75): 36.6 g/L
BUN assay ([4]; Day 75): 3.8 mmol/L
Bilirubin ([4]; Day 75): 4.5 µmol/L
Creatinine ([4]; Day 75): 73.5 µmol/L
ALAT (Alanine aminotransferase) ([4]; Day 195): 23.0 I.U./l
ALP (Alkaline phosphatase) ([4]; Day 195): 84.0 I.U./l
ASAT (Aspartate aminotransferase) ([4]; Day 195): 22.0 I.U./l
Albumin ([4]; Day 195): 40.0 g/L
BUN assay ([4]; Day 195): 4.0 mmol/L
Bilirubin ([4]; Day 195): 4.0 µmol/L
Creatinine ([4]; Day 195): 78.9 µmol/L
Adverse effects, % ([3]; in vivo): 27%
Adverse effects, No. ([3]; in vivo): 3 No.
bouts of pneumonia, cases ([3]; in vivo): 5 cases
side effects (in words) ([3]; in vivo): distinctly more side effects
antibiotic treatment needed for pneumonia ([3]; patients with pneumonia): required antibiotic treatment
cure rate (visceral leishmaniasis [5]): about 80%
failures (Kala-azar): 8%

vitamin K
incidence of epistaxis ([3]; vitamin K 10 mg daily for 5 days, low initial haemoglobin and prolonged prothrombin time): significantly reduced
